Test results as given in PubChem BioAssay (NCI).
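Each compound was tested at five concentrations against cells in 96-well plates for 48 hours. GI50 = concentration required for 50% inhibition of growth. TGI: concentration producing complete growth inhibition.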

What was measured:
Assay in all cases: growth of human tumour cells (NCI), 48 h
786-0 renal = test system: 786-0 renal
HOP-92 NSCLC = test system: HOP-92 NSCLC
MALME-3M melanoma = test system: MALME-3M melanoma
OVCAR-4 ovarian = test system: OVCAR-4 ovarian
OVCAR-5 ovarian = test system: OVCAR-5 ovarian
SF-268 CNS = test system: SF-268 CNS
SK-MEL-28 melanoma = test system: SK-MEL-28 melanoma
UACC-257 melanoma = test system: UACC-257 melanoma
NCI/ADR-RES ovarian = test system: NCI/ADR-RES ovarian

| Structure (SMILES) | TGI (786-0 renal) | TGI (HOP-92 NSCLC) | TGI (MALME-3M melanoma) | TGI (OVCAR-4 ovarian) | TGI (OVCAR-5 ovarian) | TGI (SF-268 CNS) | TGI (SK-MEL-28 melanoma) | TGI (UACC-257 melanoma) | GI50 (HOP-92 NSCLC) | GI50 (MALME-3M melanoma) | GI50 (OVCAR-4 ovarian) | GI50 (OVCAR-5 ovarian) | GI50 (SF-268 CNS) | GI50 (SK-MEL-28 melanoma) | GI50 (UACC-257 melanoma) | TGI (NCI/ADR-RES ovarian) | GI50 (NCI/ADR-RES ovarian) |
| --- | --- | --- | --- | --- | --- | --- | --- | --- | --- | --- | --- | --- | --- | --- | --- | --- | --- |
| CC(=O)NC1=C(C)C(=O)c2c(nc3n2CCC3O)C1=O (stereo not drawn) | > 100 µM | 33.3 µM | 37.5 µM | 29.7 µM | > 100 µM | > 83.3 µM | > 100 µM | > 59.9 µM |  |  |  |  |  |  |  |  |  |
| CCNC(=O)/C=C/CCC#Cc1ccc(-c2ccc(-c3cccs3)s2)s1 | > 100 µM | > 100 µM | > 100 µM | > 100 µM | > 100 µM | > 100 µM |  | > 100 µM |  |  |  |  |  |  |  |  |  |
| Oc1ccc2c(c1)CC[N+]1=C2CCC2CCCC21 (stereo not drawn) | > 100 µM | > 100 µM |  | > 100 µM | > 100 µM | > 100 µM | > 100 µM |  |  |  |  |  |  |  |  |  |  |
| CCOC(=O)c1c2c(n3ccc(NC(=O)OC(C)(C)C)cc13)C(=O)c1ncccc1C2=O |  | 0.927 µM | 1.27 µM | 3.22 µM | 1.65 µM | 1.91 µM | 1.4 µM | 0.919 µM | 0.137 µM | 0.0997 µM | 0.291 µM | 0.0971 µM | 0.0713 µM | 0.232 µM | 0.265 µM |  |  |
| CCOC(=O)C(=O)C1C(=O)Nc2ccccc21 (stereo not drawn) | > 100 µM | > 100 µM | > 100 µM | > 100 µM | > 100 µM | > 100 µM | > 100 µM | > 100 µM |  |  |  |  |  |  |  |  |  |
| CCOC(=O)CCc1c(C(=O)OCC)[nH]c(/C=C2\NC(=O)C(C)=C2CC)c1C | 27.5 µM | 45.1 µM | 41.1 µM | 59.4 µM | 86.3 µM | 92.1 µM | > 100 µM |  |  |  |  |  |  |  |  | 32.4 µM |  |
| C=C(CC(=O)Nc1ccc(C(=O)OC)o1)C(=O)OC | 39.6 µM | > 100 µM | 39.3 µM | 71.6 µM | 35.5 µM | > 100 µM | 44.6 µM | 44.5 µM |  |  |  |  |  |  |  | > 100 µM |  |
| OCC(O)C1OC2CC1Nc1ccccc1N2 (stereo not drawn) | > 100 µM | > 100 µM | > 100 µM |  |  | > 100 µM | > 100 µM | > 100 µM |  |  |  |  |  |  |  | > 100 µM |  |
| Nc1ccccc1NC(=O)CCCCCCC(=O)Nc1ccc2c(c1)/C(=C/c1ccc[nH]1)C(=O)N2 |  |  | > 100 µM |  | > 100 µM | > 100 µM | > 100 µM | > 100 µM |  | 6.2 µM |  | > 100 µM | 6.64 µM | > 100 µM | > 100 µM | > 100 µM | > 100 µM |
| COc1ccc(Oc2nc3ccc(C(F)(F)F)cc3nc2-c2ccccc2)cc1 | > 100 µM | > 100 µM | > 100 µM | > 100 µM | > 100 µM | > 100 µM | > 100 µM | > 100 µM |  |  |  |  |  |  |  |  |  |
| [N-]=[N+]=NC1CC(n2cc(COCC(F)(F)F)c(=O)[nH]c2=O)OC1CO (stereo not drawn) | > 100 µM | > 100 µM | > 100 µM | > 100 µM | > 100 µM | > 100 µM | > 100 µM | > 100 µM |  |  |  |  |  |  |  |  |  |
| C[C@@H]1C[C@]2(C[C@@H](C)[C@H]3C(C[C@@]4(C)CCC[C@@H]5C6=C[C@H](CCC34C)OC6=CC(=O)OC5(C)C)O2)OC1=O (stereo partly drawn) |  | > 51.5 µM |  | > 51.5 µM | > 51.5 µM |  |  | > 51.5 µM |  |  |  |  |  |  |  | > 51.5 µM |  |
| CSc1nc(NC2OCC(O)C(O)C2O)c(N)c(=O)n1C (stereo not drawn) |  | > 100 µM | > 100 µM | > 100 µM | > 100 µM | > 100 µM | > 100 µM | > 100 µM |  |  |  |  |  |  |  | > 100 µM |  |
| CCOC(=O)c1c2c(n(-c3ccc(OC)cc3)c1C)C(=O)C(=O)c1ccccc1-2 | 3.5 µM | 3.98 µM | 0.605 µM | 3.44 µM | 3.46 µM | 3.76 µM | 3.89 µM | 1.11 µM |  |  |  |  |  |  |  | 2.01 µM |  |
| N=S(=O)(c1ccccc1)c1ccccc1[N+](=O)[O-] (stereo not drawn) | > 100 µM |  | > 100 µM | > 100 µM | > 100 µM |  |  | > 100 µM |  |  |  |  |  |  |  |  |  |
| CC1CCc2c(sc3ncnc(N/N=C/c4ccc(Cl)c(Cl)c4)c23)C1 (stereo not drawn) | 55.8 µM |  | > 100 µM |  | > 100 µM | > 100 µM | > 100 µM | > 100 µM |  |  |  |  |  |  |  |  |  |
| O=C(NCCCCNCCCNC(=O)c1ccccc1)c1ccccc1 | > 100 µM | > 100 µM |  | > 100 µM | > 100 µM | > 100 µM | > 100 µM | > 100 µM |  |  |  |  |  |  |  | > 100 µM |  |
| O=C(NC1(C(=O)NNc2nnc(-c3ccccc3)c(-c3ccccc3)n2)C(c2ccccc2)C(c2ccccc2)=NN1c1ccccc1)c1ccccc1 (stereo not drawn) | > 100 µM | > 100 µM | > 100 µM | > 100 µM | > 100 µM | > 100 µM |  | > 100 µM |  |  |  |  |  |  |  | > 100 µM |  |
| COc1ccc(-c2nc(-c3cc4ccccc4oc3=O)cs2)cc1 | > 100 µM | > 100 µM | > 100 µM | > 100 µM | > 100 µM | > 100 µM | > 100 µM | > 100 µM |  |  |  |  |  |  |  | > 100 µM |  |
